# Entries after “also recorded” stand apart in the source; their conditions may differ.
# Assays:
# [1] = test system: human MCF-7 breast cancer cells; test: E2-stimulated proliferation of MCF-7 breast cancer cells; assay type: cell-based; settings: MCF-7 cells, 100 pM E2, 6-8 days
# Description: FIG. 11. […] A) OP-1074 had similar potency to model anti-estrogens in inhibiting E2-stimulated proliferation of breast cells in vitro. MCF-7 cells were treated with anti-estrogens in hormone-depleted medium for 6-8 days in the presence of 100 pM E2. Proliferation was measured using Cyquant fluorescent DNA-binding dye (Invitrogen, Grand Island, N.Y.). Results were from a single representative experiment and reported as the mean percent induction relative to E2 from triplicate treatments, with error bars representing SEM. […] Results were from a single representative experiment and reported as the mean percent induction relative to E2 from triplicate treatments, with error bars representing SEM. IC50's were calculated using the least squares fit method.
# Proliferation in MCF-7 was measured using a fluorescent DNA binding dye 6-8 days after treatment in triplicate with anti-estrogens in the presence of 100 pM E2 and as described in the legend to, and depicted in FIG. 11.
# [2] = test system: alkaline phosphatase (AP) activity in ECC-1 cells; test: Alkaline phosphatase (AP) assay in ECC-1 cells, agonist mode (without E2); assay type: cell-based, human; settings: without E2, 3 days
# From the text: FIG. 2. Alkaline phosphatase (AP) activity in ECC-1 cells correlates with the uterine wet weight of ovariectomized rats, as reported previously in Scafonas, et al. (*; Scafonas et al. “Agonist-like SERM effects on ER alpha-mediated repression of MMPI promoter activity predict in vivo effects on bone and uterus. J Steroid Biochem Mol. Biol. 2008 110(3-5):197-206) and Labrie, et al. (†; Labrie et al. “The combination of a novel selective estrogen receptor modulator with an estrogen protects the mammary gland and uterus in a rodent model: the future of postmenopausal women's health?” Endocrinology. 2003 144(11):4700-6). ECC-1 cells were treated with 500 pM 17β-estradiol (E2) or 1-5 nM anti-estrogens in hormone-depleted medium for 3 days. […] AP activity was measured by incubating a chromogenic AP substrate, p-nitrophenyl phosphate, at 40° C. for 40 minutes followed by measuring the absorbance at 405 nm. […]
# FIG. 3. […] ECC-1 cells were treated with 100 nM anti-estrogens and AP activity was measured as described in FIG. 2. […] Note that OP-1038 was statistically different from Aragon Compound 28 (WO2011/156518), EM-343 and Gauthier compound Ia (p≦0.01 (exact p values stated in graph), calculated using Student's t-test).
# (§1) Method for performing the alkaline phosphatase (AP) assay. […] Absorbance was read at 405 nm using a plate spectophotometer. […]
# [3] = test system: E2-stimulated estrogen response element (ERE)-regulated reporter gene activity; test: ERE-tk109-Luc reporter gene assay in MCF-7 cells; assay type: cell-based, human; settings: 100 pM E2, 18-22 hours
# Description: FIG. 10. […] A) OP-1074 had similar potency to model anti-estrogens in the ERE reporter gene assay. MCF-7 cells were transiently transfected with ERE-tk109-Luc and treated with anti-estrogens in hormone-depleted medium in the presence of 100 pM E2 for 22 hours. Results were from a single representative experiment and reported as the mean percent induction relative to E2 from triplicate treatments, with error bars representing SEM. […] Results were from a single representative experiment and reported as the mean percent induction relative to E2 from triplicate treatments, with error bars representing SEM. IC50's were calculated using the least squares fit method.
# Compounds of invention are tested for their inhibitory activity of estrogen according to the assay methods described in Hodges-Gallagher, L., Valentine, C. V., El Bader, S. and Kushner, P. J. (2007) “Histone Deacetylase Inhibitors Enhance the Efficacy of Hormonal Therapy Agents on Breast Cancer Cells and Blocks Anti-estrogen-Driven Uterine Cell Proliferation” Breast Cancer Res Treat, November; 105(3):297-309. Specifically, an estrogen-responsive reporter gene (ERE-tk109-Luc) was transiently transfected into MCF-7 cells and treated with anti-estrogens in triplicate in the presence of 100 pM 17β-estradiol (E2) for 18-22 hours. Luciferase activity was normalized to activity of E2 alone and IC50's were calculated using the least squares fit method. This method is also described in legend for FIG. 10.
# [4] = test system: E2-stimulated AP activity in ECC-1 cells; test: Inhibition of E2-stimulated AP activity in ECC-1 cells (antagonist mode); assay type: cell-based, human; settings: in the presence of 500 pM E2
# From the text: FIG. 2. Alkaline phosphatase (AP) activity in ECC-1 cells correlates with the uterine wet weight of ovariectomized rats, as reported previously in Scafonas, et al. (*; Scafonas et al. “Agonist-like SERM effects on ER alpha-mediated repression of MMPI promoter activity predict in vivo effects on bone and uterus. J Steroid Biochem Mol. Biol. 2008 110(3-5):197-206) and Labrie, et al. (†; Labrie et al. “The combination of a novel selective estrogen receptor modulator with an estrogen protects the mammary gland and uterus in a rodent model: the future of postmenopausal women's health?” Endocrinology. 2003 144(11):4700-6). ECC-1 cells were treated with 500 pM 17β-estradiol (E2) or 1-5 nM anti-estrogens in hormone-depleted medium for 3 days. Note that the racemic mixture of acolbifene, EM-343, was used in the in vitro AP assay. AP activity was measured by incubating a chromogenic AP substrate, p-nitrophenyl phosphate, at 40° C. for 40 minutes followed by measuring the absorbance at 405 nm. Results were from a single representative experiment and reported as the mean percent induction relative to E2 from triplicate treatments, with error bars representing SEM.
# FIG. 6. […] A) Comparison of inhibition of E2-stimulated AP activity of various benzopyran compounds (right) compared to published reference compounds (left). ECC-1 cells were treated with 100 nM anti-estrogens in the presence of 500 pM E2 and AP activity was measured as described in FIG. 2. Note that OP-1038 was statistically different from EM-343 and Gauthier compound Ia (p<0.0001 (exact p values stated in graph), calculated using Student's t-test). Results were from a single representative experiment and reported as the mean percent induction relative to E2 from triplicate treatments, with error bars representing SEM. […] IC50's were calculated using the least squares fit method. *Aragon Compound 28 was statistically different from equivalent dose of OP-1038 (p≦0.01, calculated using Student's t-test). […]
# as §1
Compound,Antagonism of E2-stimulated proliferation [1],"Estrogenic activity: AP activity, percent induction relative to E2 [2]",Antagonism of E2-stimulated ERE-regulated reporter gene activity [3],Inhibition of E2-stimulated AP activity [4]
"CC1=C(c2ccc(O)cc2)C(c2ccc(OCCN3CC[C@@H](C)C3)cc2)Oc2cc(O)ccc21 (stereo partly drawn) [OP-1038, 3-(4-hydroxyphenyl)-4-methyl-2-(4-{2-[(3R)-3-methylpyrrolidin-1-yl]ethoxy}phenyl)-2H-chromen-7-ol]",improved potency; also recorded: potent antagonists,lacks estrogenic activity; also recorded: less estrogenic than Aragon Compound 28,improved potency; also recorded: potent antagonists,more potent than Aragon Cpd. 28; also recorded: inhibit E2-stimulated AP activity; also recorded: more anti-estrogenic than EM-343 and EM-652
"CC1=C(c2ccc(O)cc2)[C@H](c2ccc(OCCN3CC[C@@H](C)C3)cc2)Oc2cc(O)ccc21 [OP-1074, (2S)-3-(4-hydroxyphenyl)-4-methyl-2-(4-{2-[(3R)-3-methylpyrrolidin-1-yl]ethoxy}phenyl)-2H-chromen-7-ol]",improved potency; also recorded: potent antagonists,essentially no estrogenic activity; also recorded: lack estrogenic activity; also recorded: did not stimulate AP activity,improved potency; also recorded: potent antagonists,inhibit E2-stimulated AP activity; also recorded: more anti-estrogenic than EM-343 and EM-652; also recorded: inhibited E2-stimulated AP activity in a dose dependent manner

# — US9018244B2, “Benzopyran compounds, compositions and uses thereof” (Olema Pharmaceuticals, Inc., priority 2011, dated 2015)
